Test results taken from patent US20230374068A1, “COMPOSITIONS AND METHODS FOR TREATING A DISEASE” (RAMOT AT TEL AVIV UNIVERSITY LTD., priority 2021, published 2023).
Entries after “also recorded” stand apart in the source; their conditions may differ. Blank lines part the entries; values can stand above or below the molecule they belong to.

Legend:
Rab12 phosphorylation [1] = experiment: Rab12 phosphorylation in PC12 cells, Ion/TPA- or rotenone-treated (western blot); format: cell-based
Experimental: Cells that were incubated in the absence of rotenone were then left untreated or incubated with a combination of 1 μM 4-bromo-calcium ionophore A23187 (Ion) and 50 nM of the phorbol ester (TPA) for 30 minutes at 37° C. Cells were then washed three times with PBS, lysed with lysis buffer containing phosphatase inhibitors and cell lysates analysed by western blotting with anti phosphoRab12 antibodies followed by re-probing with anti GAPDH antibodies. […] The results are the fold increase in Rab12 phosphorylation based on the ratio of phosphorylated Rab12 to GAPDH.
Samples were separated by SDS-PAGE using 10-12% polyacrylamide gels and electrophoretically transferred to nitrocellulose membranes. Blots were blocked for 20 min in TBST (10 mM Tris-HCl, pH 8.0, 150 mM NaCl, and 0.05% Tween 20) containing 5% skim-milk, followed by overnight incubation at 4° C. with the desired primary Abs. Blots were washed three times and incubated for 1 hour at room temperature with HRP-conjugated secondary Ab. Immunoreactive bands were visualized by the ECL method according to standard procedures. The intensity of the immunoreactive bands was quantified using ImageJ software.
For Rab12 phosphorylation in PC12 cells, cells were grown for 48 hours either in growth medium or in medium supplemented with 1 μM LY333531 or 10 μM GSK2578215A in the absence or presence of 100 nM rotenone. For Ion/TPA-stimulated phosphorylation, cells grown in medium only or medium containing inhibitors, were stimulated with 1 μM 4-bromo-calcium ionophore A23187 (Ion) and 50 nM of the phorbol ester (TPA) for 30 minutes. Cells were processed as above.

Rab12 phosphorylation [2] = experiment: Rab12 phosphorylation in Ion/TPA-activated BMMCs with inhibitors (western blot); format: cell-based, mouse; details: 1 μM inhibitor, 30 min pre-incubation, then Ion/TPA 30 min
Experimental: BMMCs were seeded in 10 cm plates overnight in growth medium or medium containing 400 nM TPA. Next day cells were collected and washed three times with Tyrode's buffer in Eppendorf tubes. Cells were subsequently incubated for 30 minutes at 37° C. with vehicle (0.1% DMSO) or with 10 μM GSK2578215A (GSK), 1 μM Go6976, 2 mM EGTA or 1 μM MRT68921, as indicated. Cells were then left untreated (UT) or treated for additional 30 minutes at 37° C., with a combination of 1 μM 4-bromo-calcium ionophore A23187 (Ion) and 50 nM of the phorbol ester (TPA), in the absence or presence of the inhibitors. Cells were then washed three times with PBS, lysed with lysis buffer containing phosphatase inhibitors and cell lysates analysed by western blotting with anti phosphoRab12 antibodies followed by reprobing with anti Rab12 antibodies. A representative blot is shown.
The results are the relative ratio of phosphorylated to total Rab12. […]
Samples were separated by SDS-PAGE using 10-12% polyacrylamide gels and electrophoretically transferred to nitrocellulose membranes. […] The intensity of the immunoreactive bands was quantified using ImageJ software.
Cells (RBL, BMMCs or SH-SY5Y) were grown overnight in growth medium or medium containing 400 nM TPA, where indicated. […] Cells were then washed with PBS and lysed for 30 minutes in lysis buffer D. Cell lysates were analyzed by western blotting. […]

[3] = target: T1, Rab12 interaction with RILP (Mus musculus, UniProt Q5ND29); experiment: Peptide inhibition of Rab12 pulldown by GST-RILP from RBL cell lysates; format: binding, rat; details: 100 μM peptide, 4 h at 4° C., then RBL cell lysate overnight
T1 construct: made in house
T1 sequence (Q5ND29 1-369): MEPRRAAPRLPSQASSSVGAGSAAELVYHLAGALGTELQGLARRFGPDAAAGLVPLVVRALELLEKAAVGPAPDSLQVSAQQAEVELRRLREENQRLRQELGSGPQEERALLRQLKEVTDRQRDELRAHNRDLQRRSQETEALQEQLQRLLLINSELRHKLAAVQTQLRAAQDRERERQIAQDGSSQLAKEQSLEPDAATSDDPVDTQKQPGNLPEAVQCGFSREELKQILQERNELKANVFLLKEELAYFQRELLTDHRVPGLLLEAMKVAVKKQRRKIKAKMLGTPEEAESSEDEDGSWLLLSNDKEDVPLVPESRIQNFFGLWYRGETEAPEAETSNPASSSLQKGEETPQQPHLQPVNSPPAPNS
Experimental: At the end of the incubation period, beads were sedimented by centrifugation at 5000×g for 5 min at 4° C., washed four times with 50 mM Hepes pH 7.4, 150 mM NaCl, 1 mM MgCl2, 0.2% Triton X-100, protease inhibitor mixture, 1 mM PMSF, 2 mM Na3VO4, 10 mM NaPPi and 80 mM β-glycerophosphate and suspended in 1× sample buffer and boiled for 7 minutes. Proteins were resolved by SDS-PAGE and analyzed by immunoblotting with anti Rab12 antibodies. […] The results are the average pulldown±SEM derived from two independent experiments.
Pulldown assays were performed as previously described 2. Briefly, 20 μg of GST fusion proteins or control GST immobilized on Glutathione Agarose beads were incubated for 18 hours at 4° C. with RBL cell lysates (500 μg) prepared in buffer C (50 mM Hepes pH 7.4, 150 mM NaCl, 1 mM MgCl2, 1% TritonX100, 1 mM PMSF, protease inhibitor mixture, 2 mM Na3VO4) in the presence of 0.5 mM GTPγS. At the end of the incubation period, beads were sedimented by centrifugation at 5000×g for 5 minutes at 4° C., washed 4 times in buffer C with 0.2% TritonX100, and finally suspended in sample buffer, boiled for 7 minutes, and subjected to SDS-PAGE and immunoblotting. […]

PC12 cells = experiment: SG distribution, cell morphology and primary cilia in PC12 cells expressing CA Rab12 (confocal microscopy); format: cell-based
Experimental: Cells (4×10^4 cells/well) were seeded onto 12 mm round glass coverslips in a 24-well plate. Next day, cells were transiently co-transfected using lipofectamine 2000 with 500 ng of plasmid encoding NPY-mRFP and 1000 ng of pEGFP-C1-Rab12(Q100L), a GTP-locked, constitutively active mutant of Rab12 (herein: CA Rab12). After transfection, cells were either left untreated (UT) or incubated for 48 hours at 37° C. with 100 nM rotenone. After 48 hours, cells were incubated for an additional hour at 37° C. with or without 100 μM of TAT-125 peptide (i.e. […], SEQ ID NO: 14), as indicated. Cells were then fixed and immunostained with polyclonal antibodies directed against Arl13b (primary cilium marker), followed by Hilyte Plus 647-conjugated goat anti-rabbit IgG. Cells were visualized by confocal microscopy. The right panels are the overlap of the confocal images on the corresponding brightfield.
RBL cells (4×10^5 cells/well) or PC12 cells (4×10^4 cells/well) were grown on 12-mm round glass coverslips, washed three times with PBS, and fixed for 20 min at room temperature with 4% paraformaldehyde in PBS. […] After washing, the cells were mounted (Golden Bridge Life Science, Mukilteo City, WA) and analyzed using a LEICA SP8 STED high resolution laser scanning confocal microscope (Leica, Wetzlar, Germany) using a 63 oil/1.4 numerical aperture objective. […]

[4] = target: T2, endogenous Rab12 of RBL cells (rat, UniProt P35284 49-291, limits assumed); experiment: GST pulldown of endogenous Rab12 from resting RBL cell lysates, anti-Rab12 immunoblot
T2 construct: Total Rab12 pulled down from cell lysates (blot reprobed with anti-Rab12)
T2 sequence (looked up): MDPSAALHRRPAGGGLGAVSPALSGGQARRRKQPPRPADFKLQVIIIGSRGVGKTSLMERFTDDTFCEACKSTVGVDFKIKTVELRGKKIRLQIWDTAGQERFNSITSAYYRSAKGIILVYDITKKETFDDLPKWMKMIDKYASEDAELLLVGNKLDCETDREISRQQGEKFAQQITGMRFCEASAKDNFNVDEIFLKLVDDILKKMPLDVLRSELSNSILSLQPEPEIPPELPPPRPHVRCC
Experimental: Cells were then lysed and 500 μg of cell lysate were incubated overnight at 4° C. with either GST, GST-RILP, GST-RILP-L1 or GST-RILP-L2, immobilized on glutathione agarose beads, as indicated. At the end of the incubation period, beads were sedimented by centrifugation at 5000×g for 5 minutes at 4° C., washed four times with buffer containing 50 mM Hepes pH 7.4, 150 mM NaCl, 1 mM MgCl₂, 0.2% Triton X-100, protease inhibitor mixture, 1 mM PMSF, 2 mM Na₃VO₄, 10 mM NaPPi and 80 mM β-glycerophosphate and suspended in 1× sample buffer and boiled for 7 minutes. Proteins were resolved by SDS-PAGE and analyzed by immunoblotting with the anti-phosphoRab12 antibodies, followed by reprobing with anti Rab12 antibodies, as indicated. Representative blots are shown. Similar results were obtained in two separate experiments.
Next, it was assessed whether […] any impact on Rab12 interactions with its RILP family effectors. To this end, lysates derived from resting RBL cells or RBL cells that were triggered with either IgE/Ag or Ion/TPA, were subjected to pulldown assays by chimeric proteins consisting of GST-fused to either RILP, RILP-L1, or RILP-L2, or control GST. […] Therefore, under these conditions, the efficacy of Rab12-effector interactions was RILP-L1>RILP>>>RILP-L2.

Molecule: O=C(Nc1cccnc1)c1cc(-c2ccnc(F)c2)ccc1OCc1ccccc1 [GSK2578215A]
rotenone-induced phosphorylation of Rab12 (Rab12 phosphorylation [1]; 100 nM rotenone 48 h with 1 μM LY333531 or 10 μM GSK2578215A): significantly inhibited | Ion/TPA-induced phosphorylation of Rab12 (Rab12 phosphorylation [1]; 1 μM LY333531 or 10 μM GSK2578215A 48 h, Ion/TPA 30 min): resistant

Molecule: Cn1c2ccccc2c2c3c(c4c5ccccc5n(CCC#N)c4c21)CNC3=O [Go6976]
Ion/TPA-stimulated phosphorylation of Rab12 (Rab12 phosphorylation [2]): significantly inhibited

Molecule: CN1CCc2cc(Nc3ncc(C4CC4)c(NCCCNC(=O)C4CCC4)n3)ccc2C1 [MRT68921]
Ion/TPA-stimulated phosphorylation of Rab12 (Rab12 phosphorylation [2]): significantly inhibited

Molecule: C=C(C)[C@H]1Cc2c(ccc3c2O[C@@H]2COc4cc(OC)c(OC)cc4[C@@H]2C3=O)O1 [rotenone]
induction of Rab12 phosphorylation (Rab12 phosphorylation [1]; Ion/TPA 30 min or 100 nM rotenone 48 h): induced

pulldown of Rab12 by GST-RILP [3]: could inhibit
Molecule: EACKSTVGVDFKIKT [peptide Rab125, human Rab12 residues 69-83]

pulldown of Rab12 by GST-RILP [3]: could inhibit
Molecule: ERFNSITSAYYRSAK [peptide Rab121, human Rab12 residues 102-116]

Molecule: YGRKKRRQRRRGGEACKSTVGVDFKIKT [TAT-125, cell permeable version of peptide 125]
cellular distribution of the SGs (Rab12-RILP interaction in intact cells) (PC12 cells; PC12 cells expressing CA Rab12 and NPY-mRFP, 100 μM TAT-125): partial scattering of the clustered SGs | cell morphology and primary cilia of rotenone treated cells (PC12 cells; PC12 cells, 100 nM rotenone 48 h, then 100 μM TAT-125): improves the cell morphology; also recorded: regained their normal appearance and size

fold pulldown efficacy against GST-RILP [4]: 3 fold | fold pulldown efficacy against GST-RILP-L2 [4]: 9 fold
B1: GST-RILP-L1 (pGEX-4T-3-RILP-L1) (other, mouse, UniProt Q9JJC6 1-406, looked up)
chain: MEEPLGSPPAALSALEKNVAELTVMDVYDIASLVGHEFERVIDQHGCESIARLMPKVVRVLEILEVLVSRHHVAPELDELRLELDRLRVERMDRIEKERKHQKELELVEDVWRGEAQDLLSQIAQLQEENKQLMTNLNHKDVGFSEEEFQKQEGMSERERQVMKRLKEVVDKQRDELRAKDRELGLKNEDVEALQQQQTRLMKINHDLRHRVTVVEAQGKALIEQKVELEADLQTKEQEMGSLRAELGKLRERLQGEHSQNGEEEEAEIQPQPDGEESISDAEKAALDLKDPNRPRFTLQELRDVLHERNELKSKVFLLQEELAYYKSEEIEEENRIPQPPPITHPRTSPQPESGIKRLFSFFSRDKKRLANTQRPTHIHESFGQWAITQRDDGYTEQGQEALQHL
notes: Immobilized on glutathione agarose beads; not shown: glutathione S-transferase (GST) encoded by the pGEX-4T-3 vector
